These results are taken from patent US12291516B2, “Substituted 1-amino-1H-imidazole-5-carboxamide as Bruton's tyrosine kinase inhibitors” (Henan Zhiwei Biomedicine Co., Ltd., priority 2019, dated 2025).

The target in one series is BTK (Homo sapiens (Human), UniProt Q06187). In words: In house ELISA kinase inhibition assay, BTK. The series is classed as biochemical. Particulars: footnote b: from in house procedure (ELISA). Put shortly:
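ELISA with biotinylated peptide substrate at 20 μmol/L (ITK 30 μmol/L); kinases preincubated with compound 1 h at 25° C in HEPES pH 7.4, MgCl2, MnCl2, DTT, then 3 μmol/L ATP added for 2 h. Phosphoproduct captured on anti-phosphotyrosine antibody, detected with HRP-streptavidin/TMB at 450 nm; IC50 by curve fit.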
On the technique in general: An ELISA detects its analyte on a solid surface through an enzyme-linked reagent.

Another series deals with BMX (Homo sapiens (Human), UniProt P51813). In words: In house ELISA kinase inhibition assay, BMX. The series is classed as biochemical. How it is done: (§1) BTK inhibition Assay and selectivity Assay The assay was conducted either a by a third party (Reaction Biology Corporation, PA, USA) or in house.
(§2) b) In House Procedure for BTK, BMX, EGFR and ITK:
(§3) Kinase inhibitory activities of compounds were evaluated using the Enzyme-linked immunosorbent assay (ELISA). The kinase enzyme of BTK, BMX, EGFR and ITK were purchased from Carna Bioscience (Kobe, Japan). A total of 10 ng/mL antiphosphotyrosine (PY713) antibody (abcam, Cambridge Science Park, UK) was precoated in 96-well ELISA plates. The kinase enzymes in each reaction well were set to BTK (101.25 ng/mL), BMX (90 ng/mL), EGFR (90 ng/mL) or ITK (120 ng/mL) and incubated with indicated drugs in 1× reaction buffer (50 mmol/L HEPES pH 7.4, 20 mmol/L MgCl2, 0.1 mmol/L MnCl2, 1 mmol/L DTT) containing 20 μmol/L (the final concentration of substrate in ITK reaction was 30 μmol/L) substrate (NH2-[…]-biotin) at 25° C. for 1 h. Then, a total of 3 μmol/L ATP was added and the reaction was continued for 2 h. The products of reaction were transferred into 96-well ELISA plates containing antibody and incubated at 25° C. for 30 min. After incubation, the wells were washed with PBS and then incubated with horseradish peroxidase (HRP)-conjugated streptavidin. The wells were visualized using 3,3′,5,5′-tetramethylbenzidine (TMB), and chromogenic reaction was ended with 2 mol/L H2SO4, the absorbance was read with a multimode plate reader (PerkinElmer, USA) at 450 nm. IC50 values and curve fits were obtained using Prism (GraphPad Software). (Table I-IV)

A further series has as its target ITK (Homo sapiens (Human), UniProt Q08881). In words: In house ELISA kinase inhibition assay, ITK. The series is classed as biochemical. How it is done: as §1, §2, §3
A further series addresses EGFR (Homo sapiens (Human), UniProt P00533). In words: In house ELISA kinase inhibition assay, EGFR. It is filed as biochemical. How it is done: as §1, §2, §3
In a further series the test system is TMD-8. In words: In-vitro antitumor activity assay (CellTiter-Glo cell antiproliferative activity). The series is classed as cell-based. Particulars: Homo sapiens, TMD8, TMD-8 cells, 72 h. As for the experimental part:
In-Vitro Antitumor Activity Assay
Method: Reagent and procedure by Hefei PreceDo pharmaceuticals Co. Ltd.
Cell antiproliferative activity was evaluated by the CellTiter-Glo (Promega, USA) assay. Make 1000× compounds solution in DMSO, add 1 μl 1000× compounds to […] growth medium to make 20× compounds. Dilute cell suspensions in growth medium to desired density and 95 μl were taken to 96-well plate. Add 5 μl 20× compounds into 96-well plate according to the plate map. Final DMSO concentration in each well was 0.1%. Then the cell was incubated at 37° C., 5% CO2 for 72 h. Equilibrate the assay plate to room temperature before measurement. Add 20 μl of CellTiter-Glo© Reagent into each well. Mix contents for 2 minutes on an orbital shaker to induce cell lysis. Incubate at room temperature for 10 minutes to stabilize luminescent signal. Record luminescence using EnVision Multilabel Reader (PerkinElmer). Cell viability (CV %) was calculated relative to vehicle (DMSO) treated control wells using following formula: Cell viability (%)=(RLU compound−RLU blank)/(RLU control−RLU blank)*100%. The IC50 values were calculated using GraphPad Prism 6.0 software, fitting to a 4-parameter equation to generate concentration response curves. All assays were conducted with three parallel samples and three repetitions.

The nature of series [1]: Rat pharmacokinetic assay. The series is classed as in vivo. As for the experimental part:
Rat Pharmacokinetic Assay
Method: Reagent and Procedure by Hefei PreceDo Pharmaceuticals Co. Ltd.
Male Sprague-Dawley rats with 6-8 weeks of age were purchased from Beijing Vital River Laboratory Animal Technology Co., Ltd. Rats were randomly assigned with three rats per group. A single dose of compound 84 or 85 was administered by tail vein injection in iv group. In po group, compound 84 or 85 was orally. Blood samples (˜0.25 mL) were obtained by orbital venous plexus at 2 min (iv only), 5 min, 15 min, 1 h, 2 h, 4 h, 6 h, 8 h, 12 h and 24 h (po only) post dose. After centrifuged at 4000 rpm for 10 min at 4° C., plasma was collected and stored at −20° C. until determine by LC-MS/MS.

Setting [2] is: male, Sprague-Dawley, plasma, iv 1 mg/kg.

Each structure is given as a SMILES string. Like-named read-outs stand apart in the source and are kept apart here.

ITK, sequence (Q08881 whole entry): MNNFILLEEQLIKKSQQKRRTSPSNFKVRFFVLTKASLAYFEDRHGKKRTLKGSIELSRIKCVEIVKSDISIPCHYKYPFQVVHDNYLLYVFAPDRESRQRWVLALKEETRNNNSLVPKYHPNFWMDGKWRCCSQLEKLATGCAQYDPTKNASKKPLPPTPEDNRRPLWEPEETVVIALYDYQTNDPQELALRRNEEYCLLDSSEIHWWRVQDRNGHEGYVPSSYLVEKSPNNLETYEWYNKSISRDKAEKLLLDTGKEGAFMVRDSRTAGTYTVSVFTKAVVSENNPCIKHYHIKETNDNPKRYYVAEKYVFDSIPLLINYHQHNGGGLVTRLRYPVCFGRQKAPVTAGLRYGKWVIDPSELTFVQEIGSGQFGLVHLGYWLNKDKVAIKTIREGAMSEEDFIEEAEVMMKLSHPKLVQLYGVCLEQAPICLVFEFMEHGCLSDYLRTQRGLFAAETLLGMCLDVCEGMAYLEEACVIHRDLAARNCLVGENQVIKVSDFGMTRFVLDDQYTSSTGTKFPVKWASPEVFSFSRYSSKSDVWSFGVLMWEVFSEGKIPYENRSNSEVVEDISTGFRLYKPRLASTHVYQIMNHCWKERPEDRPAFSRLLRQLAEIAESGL
BMX, sequence (P51813 whole entry): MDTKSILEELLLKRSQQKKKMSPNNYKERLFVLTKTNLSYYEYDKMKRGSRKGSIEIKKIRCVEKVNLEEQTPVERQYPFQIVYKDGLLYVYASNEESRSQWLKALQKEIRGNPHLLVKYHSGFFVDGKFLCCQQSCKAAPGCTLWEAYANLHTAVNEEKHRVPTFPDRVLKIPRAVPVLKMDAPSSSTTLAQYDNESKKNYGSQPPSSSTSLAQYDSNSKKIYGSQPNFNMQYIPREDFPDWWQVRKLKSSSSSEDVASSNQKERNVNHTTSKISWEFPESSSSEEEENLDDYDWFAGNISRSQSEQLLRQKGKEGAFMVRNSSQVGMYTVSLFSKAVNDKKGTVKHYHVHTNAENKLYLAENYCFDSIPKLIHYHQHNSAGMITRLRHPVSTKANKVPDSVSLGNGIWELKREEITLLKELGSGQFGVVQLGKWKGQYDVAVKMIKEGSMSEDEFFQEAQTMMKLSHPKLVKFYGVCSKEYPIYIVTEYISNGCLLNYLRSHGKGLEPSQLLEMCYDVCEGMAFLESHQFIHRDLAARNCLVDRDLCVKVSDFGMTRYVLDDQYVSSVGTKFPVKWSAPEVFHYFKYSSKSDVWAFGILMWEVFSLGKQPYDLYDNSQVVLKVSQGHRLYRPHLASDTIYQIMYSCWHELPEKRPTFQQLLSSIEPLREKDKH
EGFR, sequence (P00533 25-1210): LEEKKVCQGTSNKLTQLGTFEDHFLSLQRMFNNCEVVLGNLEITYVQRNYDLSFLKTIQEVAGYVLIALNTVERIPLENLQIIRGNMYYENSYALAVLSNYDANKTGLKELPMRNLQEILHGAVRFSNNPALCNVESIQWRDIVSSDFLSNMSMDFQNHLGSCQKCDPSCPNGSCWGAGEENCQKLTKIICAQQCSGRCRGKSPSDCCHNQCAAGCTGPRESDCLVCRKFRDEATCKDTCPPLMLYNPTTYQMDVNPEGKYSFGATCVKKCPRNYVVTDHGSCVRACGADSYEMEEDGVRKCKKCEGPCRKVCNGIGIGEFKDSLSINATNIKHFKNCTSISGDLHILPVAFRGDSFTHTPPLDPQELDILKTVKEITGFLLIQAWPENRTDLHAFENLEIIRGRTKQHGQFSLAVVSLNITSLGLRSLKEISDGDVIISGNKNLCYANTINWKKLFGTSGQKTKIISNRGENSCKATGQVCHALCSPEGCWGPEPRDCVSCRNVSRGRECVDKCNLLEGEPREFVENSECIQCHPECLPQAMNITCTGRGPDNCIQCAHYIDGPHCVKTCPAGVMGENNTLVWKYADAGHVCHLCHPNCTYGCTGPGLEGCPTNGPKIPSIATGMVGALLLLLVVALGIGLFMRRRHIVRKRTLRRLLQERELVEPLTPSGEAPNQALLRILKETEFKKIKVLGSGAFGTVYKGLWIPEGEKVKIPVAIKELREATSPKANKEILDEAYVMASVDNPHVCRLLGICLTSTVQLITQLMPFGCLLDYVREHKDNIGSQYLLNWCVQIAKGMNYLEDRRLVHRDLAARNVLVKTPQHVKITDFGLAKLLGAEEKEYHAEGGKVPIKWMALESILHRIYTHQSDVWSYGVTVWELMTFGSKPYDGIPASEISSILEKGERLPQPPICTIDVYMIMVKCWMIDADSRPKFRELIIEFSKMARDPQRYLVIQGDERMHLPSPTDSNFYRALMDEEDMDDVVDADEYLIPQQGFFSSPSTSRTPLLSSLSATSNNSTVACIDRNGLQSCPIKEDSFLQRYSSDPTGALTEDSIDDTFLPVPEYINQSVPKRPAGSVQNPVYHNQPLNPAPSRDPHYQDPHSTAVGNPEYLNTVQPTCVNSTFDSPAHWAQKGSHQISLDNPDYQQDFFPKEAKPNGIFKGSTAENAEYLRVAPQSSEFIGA
BTK, sequence (Q06187 whole entry): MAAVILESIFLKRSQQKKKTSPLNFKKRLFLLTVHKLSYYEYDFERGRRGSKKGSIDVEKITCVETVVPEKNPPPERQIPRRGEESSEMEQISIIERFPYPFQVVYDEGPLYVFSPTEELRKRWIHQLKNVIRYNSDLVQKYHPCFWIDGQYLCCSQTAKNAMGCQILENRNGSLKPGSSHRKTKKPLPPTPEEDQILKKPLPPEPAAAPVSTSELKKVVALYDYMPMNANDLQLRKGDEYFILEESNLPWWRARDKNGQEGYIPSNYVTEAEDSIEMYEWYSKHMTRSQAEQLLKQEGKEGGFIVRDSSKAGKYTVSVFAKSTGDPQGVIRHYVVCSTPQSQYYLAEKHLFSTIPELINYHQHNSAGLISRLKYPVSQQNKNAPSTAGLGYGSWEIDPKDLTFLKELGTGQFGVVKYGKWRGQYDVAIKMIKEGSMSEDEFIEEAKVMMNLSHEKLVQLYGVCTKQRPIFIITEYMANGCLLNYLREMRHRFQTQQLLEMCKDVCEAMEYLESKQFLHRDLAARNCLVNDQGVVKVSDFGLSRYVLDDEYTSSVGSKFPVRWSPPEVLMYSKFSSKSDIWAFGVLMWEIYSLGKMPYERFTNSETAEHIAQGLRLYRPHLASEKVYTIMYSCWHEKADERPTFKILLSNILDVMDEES

For the compound `CC#CC(=O)N1CCCC[C@H]1c1nc(-c2ccc(C(=O)Nc3cc(C(F)(F)F)ccn3)cc2)c(C(N)=O)n1N` [Example 85, (S)-1-amino-2-(1-(but-2-ynoyl)piperidin-2-yl)-4-(4-((4-(trifluoromethyl)pyridin-2-yl)carbamoyl)phenyl)-1H-imidazole-5-carboxamide], the IC50 (usually the point on the concentration scale where inhibition reaches its midpoint) against BTK stood at 7.29 nM; on BMX (in house ELISA), 789 nM; on ITK (in house ELISA), 30000 nM; against EGFR (in house ELISA) it was 11800 nM; with TMD-8, 54.3 nM. For the same compound, the Selectivity ratio turned out to be 108.2 on BMX (selectivity for BTK and BMX); 4115 at ITK (selectivity for BTK and ITK); 1619 at EGFR (selectivity for BTK and EGFR). Besides, in series [1] (setting [2]), the clearance (in general, a measure of how efficiently the substance is removed, as volume per time) came out at 50 mL/min/kg. Further, the half-life (in general, how long it takes for the measured level to halve) in series [1] (setting [2]) is 1.97 h; in series [1] (male, Sprague-Dawley, plasma, po 10 mg/kg), 2.74 h. For the same compound, the volume of distribution (Vd) (as a rule, the apparent volume that relates the amount in the body to the concentration in plasma or blood) in series [1] (male, Sprague-Dawley, plasma, iv 1 mg/kg, read-out: Vd) is 8.62 L/kg. Also, the exposure (AUC) (as a rule, the area under the concentration-time curve, a measure of exposure) is 3250 ng·h/mL in series [1] (male, Sprague-Dawley, plasma, po 10 mg/kg, read-out: AUC) and 3247 ng·h/mL in series [1] (po 10 mg/kg). The Cmax (commonly the maximum level reached in the sampled fluid or tissue) in series [1] (male, Sprague-Dawley, plasma, po 10 mg/kg, read-out: Cmax) stood at 723 ng/mL. This compound returned a F in series [1] (po 10 mg/kg) of 90.6%. The compound further yielded a T1/2 in series [1] (po 10 mg/kg) of 2.74 h.
